Measured values taken from patent US8598202B2, “Aryl-hydroxyethylamino-pyrimidines and triazines as modulators of fatty acid amide hydrolase” (Janssen Pharmaceutica NV, priority 2008, dated 2013).
Structures can show the parent of a compound that is named as a salt.

How the values were obtained:
Rat FAAH-1 = molecular target: T1, Rat FAAH-1 (Rattus norvegicus, UniProt P97612); experiment: Assay Method 2: rat FAAH-1 assay, 3H-anandamide hydrolysis in homogenate of SK-N-MC cells transfected with rat FAAH
T1 sequence (P97612 1-579): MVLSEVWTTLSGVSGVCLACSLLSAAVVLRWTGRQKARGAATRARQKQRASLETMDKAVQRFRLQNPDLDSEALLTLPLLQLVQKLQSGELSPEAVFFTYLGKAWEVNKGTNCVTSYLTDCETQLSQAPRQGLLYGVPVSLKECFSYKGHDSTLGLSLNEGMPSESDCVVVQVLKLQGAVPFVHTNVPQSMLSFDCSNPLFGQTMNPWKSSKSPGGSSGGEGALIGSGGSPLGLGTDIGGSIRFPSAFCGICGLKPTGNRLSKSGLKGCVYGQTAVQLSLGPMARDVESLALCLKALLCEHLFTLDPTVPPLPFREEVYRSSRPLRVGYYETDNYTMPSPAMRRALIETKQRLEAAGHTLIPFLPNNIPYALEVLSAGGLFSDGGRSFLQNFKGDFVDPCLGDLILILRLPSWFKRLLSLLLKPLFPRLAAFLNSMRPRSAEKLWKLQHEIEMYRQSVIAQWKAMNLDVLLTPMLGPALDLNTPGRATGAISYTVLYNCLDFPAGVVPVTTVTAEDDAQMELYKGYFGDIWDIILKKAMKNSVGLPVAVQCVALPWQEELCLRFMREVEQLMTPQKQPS

FAAH = molecular target: T2, FAAH (Homo sapiens, UniProt O00519); experiment: Assay Method 1: FAAH assay, 3H-anandamide hydrolysis in homogenate of T84 cells or SK-N-MC cells transfected with human FAAH
T2 sequence (O00519 1-579): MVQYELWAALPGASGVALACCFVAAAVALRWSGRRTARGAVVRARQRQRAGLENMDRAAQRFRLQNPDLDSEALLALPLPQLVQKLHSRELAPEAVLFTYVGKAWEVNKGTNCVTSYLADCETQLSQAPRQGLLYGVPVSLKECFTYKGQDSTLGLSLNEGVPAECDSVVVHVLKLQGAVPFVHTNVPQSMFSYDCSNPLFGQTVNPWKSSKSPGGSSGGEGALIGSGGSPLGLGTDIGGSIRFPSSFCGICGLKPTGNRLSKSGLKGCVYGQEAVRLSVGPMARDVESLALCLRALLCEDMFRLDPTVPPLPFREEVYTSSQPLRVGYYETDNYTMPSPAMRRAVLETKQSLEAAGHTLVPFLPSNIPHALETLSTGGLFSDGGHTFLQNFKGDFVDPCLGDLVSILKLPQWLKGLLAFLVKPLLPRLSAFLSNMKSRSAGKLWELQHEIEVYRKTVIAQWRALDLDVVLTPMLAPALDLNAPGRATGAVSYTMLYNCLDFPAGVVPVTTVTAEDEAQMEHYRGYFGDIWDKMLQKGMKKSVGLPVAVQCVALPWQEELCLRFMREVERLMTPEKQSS

| Compound | IC50 (Rat FAAH-1) [µM] | IC50 (FAAH) [µM] |
| --- | --- | --- |
| OC(CNc1cc(-c2ccc(C(F)(F)F)c(Cl)c2)ncn1)c1ccc(-n2ccnc2)cc1 (centres unmarked) [Example 200, 2-({6-[3-Chloro-4-(trifluoromethyl)phenyl]pyrimidin-4-yl}amino)-1-[4-(1H-imidazol-1-yl)phenyl]ethanol] | 1.6 | 0.165 |
| O[C@@H](CNc1cc(-c2ccc(C(F)(C(F)(F)F)C(F)(F)F)cc2)ncn1)c1ccccc1 [Example 219, (1R)-Phenyl-2-{6-[4-(1,2,2,2-tetrafluoro-1-trifluoromethyl-ethyl)-phenyl]-pyrimidin-4-ylamino}-ethanol] | > 10 | 2 |
| OC(CNc1cc(-c2ccc(C(F)(F)F)c(Cl)c2)ncn1)c1ccc(C(F)(F)F)c(F)c1 (centres unmarked) [Example 197, 2-({6-[3-Chloro-4-(trifluoromethyl)phenyl]pyrimidin-4-yl}amino)-1-[3-fluoro-4-(trifluoromethyl)phenyl]ethanol] | 0.034 | 0.1 |
| O[C@@H](CNc1cc(-c2cccc(C(F)(F)F)c2)ncn1)c1ccccc1 [Example 105, (1R)-1-Phenyl-2-({6-[3-(trifluoromethyl)phenyl]pyrimidin-4-yl}amino)ethanol] | 1 | 0.19 |
| OC(CNc1cc(-c2ccc(C(F)(F)F)c(Cl)c2)ncn1)c1cc2ccccc2s1 (centres unmarked) [Example 196, 1-(1-Benzothiophen-2-yl)-2-({6-[3-chloro-4-(trifluoromethyl)phenyl]pyrimidin-4-yl}amino)ethanol] | 0.043 | 0.108 |
| O=[N+]([O-])c1cccc(-c2cc(NCC(O)c3ccccc3)ncn2)c1 (centres unmarked) [Example 234, 2-[6-(3-Nitro-phenyl)-pyrimidin-4-ylamino]-1-phenyl-ethanol] | > 10 | > 10 |
| CC(=O)c1ccc(-c2cc(NCC(O)c3ccccc3)ncn2)cc1 (centres unmarked) [Example 228, 1-(4-{6-[(2-Hydroxy-2-phenylethyl)amino]pyrimidin-4-yl}phenyl)ethanone] | 0.066 | 0.026 |
| CCNc1nc(NC[C@H](O)c2ccccc2)cc(-c2ccc(C(F)(F)F)c(Cl)c2)n1 [Example 159, (1R)-2-({6-[3-Chloro-4-(trifluoromethyl)phenyl]-2-(ethylamino)pyrimidin-4-yl}amino)-1-phenylethanol trifluoroacetic acid salt] | 0.007 | 0.02 |
| CN(C)c1ccc(-c2cc(NC[C@H](O)c3ccccc3)ncn2)cc1 [Example 65, (1R)-2-({6-[4-(Dimethylamino)phenyl]pyrimidin-4-yl}amino)-1-phenylethanol] | 6 | 0.038 |
| O[C@@H](CNc1cc(-c2csc3ccccc23)ncn1)c1ccccc1 [Example 87, (1R)-2-{[6-(1-Benzothiophen-3-yl)pyrimidin-4-yl]amino}-1-phenylethanol trifluoroacetic acid salt] | 1.4 | 0.042 |
| OCc1ccc(-c2cc(NC[C@H](O)c3ccccc3)ncn2)cc1 [Example 21, (1R)-2-([6-[4-(Hydroxymethyl)phenyl]pyrimidin-4-yl]amino)-1-Phenylethanol] | 1.5 | 0.34 |
| Cc1cc(-c2cc(NC[C@H](O)c3ccccc3)ncn2)ccc1OC(C)C [Example 46, (1R)-2-({6-[3-Methyl-4-(1-methylethoxy)phenyl]pyrimidin-4-yl}amino)-1-phenylethanol] | 0.026 | 0.013 |
| O[C@@H](CNc1cc(-c2ccc3ncccc3c2)ncn1)c1ccccc1 [Example 170, (1R)-1-Phenyl-2-[(6-quinolin-6-ylpyrimidin-4-yl)amino]ethanol] | 4 | 0.081 |
| O[C@@H](CNc1cc(-c2ccc(OCC3CC3)cc2)ncn1)c1ccccc1 [Example 32, (1R)-2-({6-[4-(Cyclopropylmethoxy)phenyl]pyrimidin-4-yl}amino)-1-phenylethanol trifluoroacetic acid salt] | 1 | 0.092 |
| OC(CNc1cc(-c2ccc(OC(F)(F)F)cc2)ncn1)c1ccc(Cl)c(Cl)c1 (centres unmarked) [Example 114, 1-(3,4-Dichlorophenyl)-2-[(6-{4-[(trifluoromethyl)oxy]phenyl}-pyrimidin-4-yl)amino]ethanol] | 0.043 | 0.046 |
| CSc1nc(NC[C@H](O)c2ccccc2)cc(-c2ccc(C(F)(F)F)c(F)c2)n1 [Example 102, (1R)-2-({6-[3-Fluoro-4-(trifluoromethyl)phenyl]-2-(methylsulfanyl)pyrimidin-4-yl}amino)-1-phenylethanol trifluoroacetic acid salt] | 0.05 | 0.017 |
| O[C@@H](CNc1cc(-c2ccc(OC(F)(F)F)c(Cl)c2)ncn1)c1ccc(F)cc1 [Example 175, (1R)-2-({6-[3-Chloro-4-(trifluoromethoxy)phenyl]pyrimidin-4-yl}amino)-1-(4-fluorophenyl)ethanol trifluoroacetic acid salt] | 0.003 | 0.002 |
| O[C@@H](CNc1cc(-c2ccc(F)c(F)c2)ncn1)c1ccccc1 [Example 59, (1R)-2-{[6-(3,4-Difluorophenyl)pyrimidin-4-yl]amino}-1-phenylethanol trifluoroacetic acid salt] | 1 | 0.307 |
| C[C@@H]([C@H](O)c1ccccc1)N(C)c1cc(-c2ccc(OC(F)(F)F)cc2)ncn1 [Example 121, (1R,2S)-2-[Methyl(6-{4-[(trifluoromethyl)oxy]phenyl}pyrimidin-4-yl)amino]-1-phenylpropan-1-ol] | 3 | 0.58 |
| N#Cc1ccc(C(O)CNc2cc(-c3ccc(C(F)(F)F)c(Cl)c3)ncn2)cc1 (centres unmarked) [Example 191, 4-[2-({6-[3-Chloro-4-(trifluoromethyl)phenyl]pyrimidin-4-yl}amino)-1-hydroxyethyl]benzonitrile] | 0.007 | 0.019 |
| O[C@@H](CNc1cc(-c2ccc(C(F)(F)F)c(Cl)c2)nc(C(F)(F)F)n1)c1ccccc1 [Example 93, (1R)-2-({6-[3-Chloro-4-(trifluoromethyl)phenyl]-2-(trifluoromethyl)pyrimidin-4-yl}amino)-1-phenylethanol trifluoroacetic acid salt] | 0.152 | 0.183 |
| O[C@@H](CNc1cc(-c2ccc3[nH]ccc3c2)ncn1)c1ccccc1 [Example 85, (1R)-2-{[6-(1H-Indol-5-yl)pyrimidin-4-yl]amino}-1-phenylethanol trifluoroacetic acid salt] | 5 | 0.018 |
| OC(CNc1cc(-c2ccc(C(F)(F)F)c(Cl)c2)ncn1)c1ccc2ccccc2c1 (centres unmarked) [Example 192, 2-({6-[3-Chloro-4-(trifluoromethyl)phenyl]pyrimidin-4-yl}amino)-1-naphthalen-2-ylethanol] | 0.006 | 0.047 |
| O[C@@H](CNc1ncnc(-c2ccc(C(F)(F)F)c(Cl)c2)n1)c1ccccc1 [Example 104, (1R)-2-({4-[3-Chloro-4-(trifluoromethyl)phenyl]-1,3,5-triazin-2-yl}amino)-1-phenylethanol trifluoroacetic acid salt] | 0.058 | 0.13 |
| OC(CNc1cc(-c2cccs2)ncn1)c1ccccc1 (centres unmarked) [Example 244, 1-Phenyl-2-(6-thiophen-2-yl-pyrimidin-4-ylamino)-ethanol] | > 10 | > 10 |
| Cn1c(-c2cc(NC[C@H](O)c3ccccc3)ncn2)cc2ccccc21 [Example 55, (1R)-2-{[6-(1-Methyl-1H-indol-2-yl)pyrimidin-4-yl]amino}-1-phenylethanol trifluoroacetic acid salt] | 1.7 | 0.02 |
| CCCOc1ccc(-c2cc(NC[C@H](O)c3ccccc3)ncn2)cc1 [Example 44, (1R)-1-Phenyl-2-{[6-(4-propoxyphenyl)pyrimidin-4-yl]amino}ethanol trifluoroacetic acid salt] | 0.6 | 0.05 |
| COc1ccccc1C(O)CNc1cc(-c2ccc(OC(F)(F)F)cc2)ncn1 (centres unmarked) [Example 118, 1-[2-(Methyloxy)phenyl]-2-[(6-{4-[(trifluoromethyl)oxy]phenyl}-pyrimidin-4-yl)amino]ethanol] | > 10 | 0.093 |
